Assay results reported in ChEMBL document CHEMBL5291721, “A preclinical secondary pharmacology resource illuminates target-adverse drug reaction associations of marketed drugs” (Nat Commun, 2023).

Legend:
[1] = biological target: T1, Type-1 angiotensin II receptor (Homo sapiens, UniProt P30556)
T1 sequence (P30556 whole entry): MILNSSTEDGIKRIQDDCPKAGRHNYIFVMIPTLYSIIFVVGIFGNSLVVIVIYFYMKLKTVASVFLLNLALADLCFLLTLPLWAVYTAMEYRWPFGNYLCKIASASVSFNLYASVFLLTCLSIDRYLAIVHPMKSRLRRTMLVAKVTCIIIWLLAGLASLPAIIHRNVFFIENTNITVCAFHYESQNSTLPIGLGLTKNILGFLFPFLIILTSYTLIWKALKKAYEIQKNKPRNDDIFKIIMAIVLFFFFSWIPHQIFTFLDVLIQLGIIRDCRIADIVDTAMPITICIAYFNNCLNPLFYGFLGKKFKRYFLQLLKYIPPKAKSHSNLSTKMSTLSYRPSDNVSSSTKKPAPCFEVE

[2] = biological target: Cannabinoid receptor 1 (Homo sapiens, UniProt P21554); format: functional, cell-based
Chain of Cannabinoid receptor 1 (P21554 whole entry): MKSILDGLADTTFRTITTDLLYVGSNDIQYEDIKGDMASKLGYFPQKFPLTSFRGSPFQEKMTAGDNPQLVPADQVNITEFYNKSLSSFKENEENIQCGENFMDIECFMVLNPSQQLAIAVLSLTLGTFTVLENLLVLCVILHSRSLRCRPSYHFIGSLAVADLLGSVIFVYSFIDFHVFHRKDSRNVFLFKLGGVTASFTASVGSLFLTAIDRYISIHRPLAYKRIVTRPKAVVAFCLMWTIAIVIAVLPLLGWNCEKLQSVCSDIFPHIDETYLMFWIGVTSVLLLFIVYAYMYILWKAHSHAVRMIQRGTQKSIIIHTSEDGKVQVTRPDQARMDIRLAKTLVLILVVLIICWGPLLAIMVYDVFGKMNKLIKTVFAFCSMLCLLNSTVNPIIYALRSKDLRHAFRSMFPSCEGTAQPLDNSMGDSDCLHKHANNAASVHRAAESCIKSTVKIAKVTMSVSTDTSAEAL

[3] = biological target: Histamine H1 receptor (Homo sapiens, UniProt P35367)
Chain of Histamine H1 receptor (P35367 whole entry): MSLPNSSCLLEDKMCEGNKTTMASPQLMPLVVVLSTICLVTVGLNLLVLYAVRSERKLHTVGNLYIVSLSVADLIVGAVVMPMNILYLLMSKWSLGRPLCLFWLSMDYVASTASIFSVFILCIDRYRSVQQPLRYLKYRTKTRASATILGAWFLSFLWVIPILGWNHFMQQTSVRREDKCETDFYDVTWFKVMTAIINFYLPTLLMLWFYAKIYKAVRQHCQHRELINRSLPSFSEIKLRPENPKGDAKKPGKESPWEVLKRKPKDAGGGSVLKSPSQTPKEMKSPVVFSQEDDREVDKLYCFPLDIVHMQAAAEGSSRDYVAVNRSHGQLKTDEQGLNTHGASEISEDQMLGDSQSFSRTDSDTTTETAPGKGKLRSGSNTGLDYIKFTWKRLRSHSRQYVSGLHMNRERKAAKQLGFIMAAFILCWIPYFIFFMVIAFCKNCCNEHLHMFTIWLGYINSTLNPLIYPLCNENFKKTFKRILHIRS

[4] = biological target: 5-hydroxytryptamine receptor 2B (Homo sapiens, UniProt P41595); format: functional, cell-based
Chain of 5-hydroxytryptamine receptor 2B (P41595 whole entry): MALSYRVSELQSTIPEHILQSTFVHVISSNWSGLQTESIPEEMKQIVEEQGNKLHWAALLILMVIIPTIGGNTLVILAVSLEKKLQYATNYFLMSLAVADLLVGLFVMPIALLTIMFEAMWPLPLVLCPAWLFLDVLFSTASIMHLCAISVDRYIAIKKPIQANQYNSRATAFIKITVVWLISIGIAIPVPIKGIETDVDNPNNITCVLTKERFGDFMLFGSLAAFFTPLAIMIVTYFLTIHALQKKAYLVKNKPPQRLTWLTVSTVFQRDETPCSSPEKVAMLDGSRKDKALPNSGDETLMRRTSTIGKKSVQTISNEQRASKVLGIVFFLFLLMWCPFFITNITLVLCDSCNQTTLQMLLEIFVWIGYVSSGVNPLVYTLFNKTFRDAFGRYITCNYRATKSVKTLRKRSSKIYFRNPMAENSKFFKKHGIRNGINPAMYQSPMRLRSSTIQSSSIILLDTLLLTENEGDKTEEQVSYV

[5] = biological target: Motilin receptor (Homo sapiens, UniProt O43193)
Chain of Motilin receptor (O43193 whole entry): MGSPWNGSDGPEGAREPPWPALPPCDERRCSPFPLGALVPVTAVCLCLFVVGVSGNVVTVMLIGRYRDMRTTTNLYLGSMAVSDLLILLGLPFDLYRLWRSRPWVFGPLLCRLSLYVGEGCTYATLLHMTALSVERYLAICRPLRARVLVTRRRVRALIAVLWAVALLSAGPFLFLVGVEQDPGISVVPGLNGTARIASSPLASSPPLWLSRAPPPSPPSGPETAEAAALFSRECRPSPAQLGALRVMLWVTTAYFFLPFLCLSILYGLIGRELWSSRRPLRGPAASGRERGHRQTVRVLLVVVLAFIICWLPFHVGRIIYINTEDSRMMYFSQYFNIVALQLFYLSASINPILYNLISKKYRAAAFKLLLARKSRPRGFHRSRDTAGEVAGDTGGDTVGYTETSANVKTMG

[6] = biological target: T2, Progesterone receptor (Homo sapiens, UniProt P06401); format: functional
T2 sequence (P06401 whole entry): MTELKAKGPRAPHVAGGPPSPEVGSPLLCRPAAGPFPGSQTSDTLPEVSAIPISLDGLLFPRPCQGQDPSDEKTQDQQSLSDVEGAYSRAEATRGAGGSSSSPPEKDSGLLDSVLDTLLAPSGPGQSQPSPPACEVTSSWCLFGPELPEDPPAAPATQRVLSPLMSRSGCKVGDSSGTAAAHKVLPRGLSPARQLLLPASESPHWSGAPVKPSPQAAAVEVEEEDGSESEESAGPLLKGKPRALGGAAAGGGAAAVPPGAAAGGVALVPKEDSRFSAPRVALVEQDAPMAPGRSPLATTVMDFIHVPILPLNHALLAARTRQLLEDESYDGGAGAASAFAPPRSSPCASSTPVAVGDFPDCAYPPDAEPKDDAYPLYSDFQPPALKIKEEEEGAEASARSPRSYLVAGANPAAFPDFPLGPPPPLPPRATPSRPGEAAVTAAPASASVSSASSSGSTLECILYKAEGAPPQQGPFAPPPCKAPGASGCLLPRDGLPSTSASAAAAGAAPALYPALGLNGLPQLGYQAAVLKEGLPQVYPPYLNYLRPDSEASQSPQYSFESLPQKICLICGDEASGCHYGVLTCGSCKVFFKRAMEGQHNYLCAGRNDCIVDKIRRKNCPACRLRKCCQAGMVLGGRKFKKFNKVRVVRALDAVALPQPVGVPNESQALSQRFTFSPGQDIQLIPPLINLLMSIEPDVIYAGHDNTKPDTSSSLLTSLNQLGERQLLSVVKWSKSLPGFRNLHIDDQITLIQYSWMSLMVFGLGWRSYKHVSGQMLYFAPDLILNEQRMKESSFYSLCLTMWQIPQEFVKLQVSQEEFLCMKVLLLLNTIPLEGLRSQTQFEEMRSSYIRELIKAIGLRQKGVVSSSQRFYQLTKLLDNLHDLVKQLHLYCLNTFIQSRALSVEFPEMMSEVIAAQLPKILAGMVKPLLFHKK

[7] = biological target: Sodium-dependent noradrenaline transporter (Homo sapiens, UniProt P23975)
Chain of Sodium-dependent noradrenaline transporter (P23975 whole entry): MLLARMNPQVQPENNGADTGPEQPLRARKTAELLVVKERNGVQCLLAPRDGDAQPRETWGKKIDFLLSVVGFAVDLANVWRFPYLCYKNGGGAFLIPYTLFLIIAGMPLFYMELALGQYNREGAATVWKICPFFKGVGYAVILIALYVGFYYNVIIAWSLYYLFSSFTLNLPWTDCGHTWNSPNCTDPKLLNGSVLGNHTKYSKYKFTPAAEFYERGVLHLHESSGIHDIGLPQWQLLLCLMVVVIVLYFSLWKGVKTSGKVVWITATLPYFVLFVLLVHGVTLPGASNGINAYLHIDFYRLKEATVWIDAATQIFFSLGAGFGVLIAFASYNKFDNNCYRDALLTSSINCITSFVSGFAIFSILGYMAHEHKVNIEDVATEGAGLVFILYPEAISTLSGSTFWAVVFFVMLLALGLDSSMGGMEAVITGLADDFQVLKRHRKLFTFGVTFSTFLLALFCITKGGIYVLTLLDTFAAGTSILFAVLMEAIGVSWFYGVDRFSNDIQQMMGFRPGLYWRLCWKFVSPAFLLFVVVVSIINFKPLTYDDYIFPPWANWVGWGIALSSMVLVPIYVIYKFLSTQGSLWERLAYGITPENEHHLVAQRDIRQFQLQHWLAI

[8] = biological target: T3, Alpha-1A adrenergic receptor (Homo sapiens, UniProt P35348); format: functional, cell-based
T3 sequence (P35348 whole entry): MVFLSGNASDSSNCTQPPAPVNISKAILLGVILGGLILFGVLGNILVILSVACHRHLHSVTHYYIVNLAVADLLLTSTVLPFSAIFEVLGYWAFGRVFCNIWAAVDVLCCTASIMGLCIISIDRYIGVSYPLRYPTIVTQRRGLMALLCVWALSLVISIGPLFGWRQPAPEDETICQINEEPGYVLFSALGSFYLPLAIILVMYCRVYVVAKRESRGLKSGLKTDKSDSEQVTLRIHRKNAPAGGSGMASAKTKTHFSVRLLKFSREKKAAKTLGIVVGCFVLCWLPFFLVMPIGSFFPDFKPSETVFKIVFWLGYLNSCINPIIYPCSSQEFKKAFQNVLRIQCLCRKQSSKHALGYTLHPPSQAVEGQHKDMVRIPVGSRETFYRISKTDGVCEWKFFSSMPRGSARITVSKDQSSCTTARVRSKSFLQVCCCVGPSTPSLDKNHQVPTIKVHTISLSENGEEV

[9] = biological target: T4, Estrogen receptor (Homo sapiens, UniProt P03372)
T4 sequence (P03372 whole entry): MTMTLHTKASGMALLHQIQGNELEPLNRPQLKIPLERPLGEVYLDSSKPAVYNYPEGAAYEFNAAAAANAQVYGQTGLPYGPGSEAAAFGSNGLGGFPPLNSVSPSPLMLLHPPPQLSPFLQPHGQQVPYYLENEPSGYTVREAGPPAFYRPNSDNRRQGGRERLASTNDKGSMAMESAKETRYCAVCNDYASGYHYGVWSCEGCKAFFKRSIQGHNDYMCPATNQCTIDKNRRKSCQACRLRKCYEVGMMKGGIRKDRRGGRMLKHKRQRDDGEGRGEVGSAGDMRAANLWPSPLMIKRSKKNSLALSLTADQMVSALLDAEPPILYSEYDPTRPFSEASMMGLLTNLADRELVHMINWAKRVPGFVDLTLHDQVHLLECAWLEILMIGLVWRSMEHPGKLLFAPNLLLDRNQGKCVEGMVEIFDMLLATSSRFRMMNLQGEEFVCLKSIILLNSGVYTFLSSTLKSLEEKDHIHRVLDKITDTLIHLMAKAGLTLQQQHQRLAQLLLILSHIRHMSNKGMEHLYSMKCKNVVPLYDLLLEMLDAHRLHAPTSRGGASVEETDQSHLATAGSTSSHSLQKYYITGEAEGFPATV
Note: assay procedure not described here.

Row | SMILES | AC50 [1] | AC50 [2] | AC50 [3] | AC50 [4] | AC50 [5] | AC50 [6] | AC50 [7] | AC50 [8] | AC50 [9]
1 | Nc1ncnc2c1ncn2[C@@H]1O[C@H](COP(=O)(O)O)[C@@H](O)[C@H]1O [ADENOSINE PHOSPHATE] | > 30 µM | > 30 µM | > 30 µM | > 30 µM | > 30 µM | > 30 µM | > 30 µM | > 30 µM | –
2 | CCCC(CCC)C(=O)O[C@H]1C[C@H]2CC[C@@H](C1)[N+]2(C)C [ANISOTROPINE] | > 30 µM | > 30 µM | > 30 µM | > 30 µM | > 30 µM | > 30 µM | – | 19 µM | –
3 | CCOC(=O)[C@H](CCc1ccccc1)N[C@H]1CCCN2CCC[C@@H](C(=O)O)N2C1=O [CILAZAPRIL] | > 30 µM | > 30 µM | > 30 µM | > 30 µM | > 30 µM | > 30 µM | > 30 µM | > 30 µM | –
4 | CN1C(=O)CC(=O)N(c2ccccc2)c2cc(Cl)ccc21 [CLOBAZAM] | > 10 µM | – | > 10 µM | > 10 µM | > 10 µM | > 10 µM | > 10 µM | – | > 10 µM
5 | COC(=O)[C@H]1[C@@H](OC(=O)c2ccccc2)C[C@@H]2CC[C@H]1N2C [COCAINE] | > 30 µM | > 30 µM | > 30 µM | > 30 µM | > 30 µM | > 30 µM | – | > 30 µM | > 30 µM
6 | [H]/N=C(/N)c1ccc(NCc2nc3cc(C(=O)N(CCC(=O)O)c4ccccn4)ccc3n2C)cc1 [DABIGATRAN] | > 30 µM | > 30 µM | > 30 µM | > 30 µM | > 30 µM | > 30 µM | > 30 µM | > 30 µM | –
7 | CCCCOc1cc(C(=O)NCCN(CC)CC)c2ccccc2n1 [DIBUCAINE] | > 10 µM | > 30 µM | > 10 µM | > 10 µM | > 30 µM | > 10 µM | > 10 µM | > 30 µM | –
8 | CCCCCCCCCCCC[N+](C)(C)CCOc1ccccc1 [DOMIPHEN] | 14 µM | 17 µM | 12 µM | > 30 µM | 3 µM | 4.5 µM | 1.4 µM | – | 5 µM
9 | C#CC1(OC(N)=O)CCCCC1 [ETHINAMATE] | > 30 µM | – | > 10 µM | > 10 µM | > 10 µM | > 10 µM | > 10 µM | – | > 10 µM
10 | O=C(CCCCC(=O)Nc1c(I)cc(I)c(C(=O)O)c1I)Nc1c(I)cc(I)c(C(=O)O)c1I [IODIPAMIDE] | > 10 µM | – | > 10 µM | > 10 µM | > 10 µM | > 10 µM | > 10 µM | – | > 10 µM
11 | CC(C)[N+](C)(CCC(C(N)=O)(c1ccccc1)c1ccccc1)C(C)C [ISOPROPAMIDE] | > 10 µM | – | > 10 µM | > 10 µM | > 10 µM | > 10 µM | > 10 µM | – | > 10 µM
12 | CN1CC[C@]23CCCC[C@H]2[C@H]1Cc1ccc(O)cc13 [LEVORPHANOL] | > 10 µM | – | > 30 µM | > 10 µM | > 10 µM | > 10 µM | > 30 µM | – | > 10 µM
13 | CC1=CC(=O)c2ccccc2C1=O [MENADIONE] | > 10 µM | – | > 30 µM | > 10 µM | > 10 µM | > 30 µM | > 10 µM | – | > 30 µM
14 | CCCCCCC(C)(C)c1cc(O)c2c(c1)OC(C)(C)C1CCC(=O)CC21 (stereo not drawn) [NABILONE] | > 30 µM | – | > 30 µM | > 30 µM | > 30 µM | > 30 µM | > 30 µM | > 30 µM | > 30 µM
15 | CCCCCCCCOc1ccccc1C(=O)Nc1ccc(C(=O)OCC[N+](C)(CC)CC)cc1 [OTILONIUM BROMIDE] | 20 µM | 19 µM | 19 µM | 12 µM | 5.7 µM | 7 µM | 3.3 µM | – | > 30 µM
16 | CN1CCCN=C1COC(=O)C(O)(c1ccccc1)C1CCCCC1 (stereo not drawn) [OXYPHENCYCLIMINE] | > 10 µM | – | 0.99 µM | > 10 µM | > 10 µM | > 10 µM | > 30 µM | – | > 10 µM
17 | CN1CCC2=C(C1)C(c1ccccc1)c1ccccc12 (stereo not drawn) [PHENINDAMINE] | > 10 µM | – | 8.1 µM | > 10 µM | > 10 µM | > 30 µM | > 30 µM | – | > 30 µM
18 | Cc1nc2ccc(CN(C)c3ccc(C(=O)N[C@@H](CCC(=O)O)C(=O)O)s3)cc2c(=O)[nH]1 [RALTITREXED] | > 30 µM | – | > 30 µM | > 30 µM | > 30 µM | > 30 µM | > 30 µM | > 30 µM | –
19 | C#CCN[C@@H]1CCc2ccccc21 [RASAGILINE] | > 30 µM | – | > 30 µM | > 30 µM | > 30 µM | > 30 µM | > 30 µM | – | > 30 µM
20 | CC(=O)NS(=O)(=O)c1ccc(N)cc1 [SULFACETAMIDE] | > 10 µM | – | > 10 µM | > 10 µM | > 10 µM | > 10 µM | > 10 µM | – | > 10 µM
21 | Cc1c(Cl)cccc1Nc1ccccc1C(=O)O [TOLFENAMIC ACID] | > 30 µM | > 30 µM | > 30 µM | > 30 µM | > 30 µM | 26 µM | – | 9.5 µM | –
22 | CN1CCN(C(=O)OC2c3nccnc3C(=O)N2c2ccc(Cl)cn2)CC1 (stereo not drawn) [ZOPICLONE] | > 30 µM | > 30 µM | > 30 µM | > 10 µM | > 30 µM | > 30 µM | > 30 µM | > 30 µM | –
